This note sets out measurements from patent US8093251B2, “Nitrogen-containing heterocyclic compounds and thrombopoietin receptor activators” (Nissan Chemical Industries, Ltd., priority 2006, dated 2012).

The target in this experiment is T1, human thrombopoietin receptor (c-mpl) (Homo sapiens, UniProt P40238).
T1 construct: expressed in transfected cells
T1 sequence (P40238 26-635): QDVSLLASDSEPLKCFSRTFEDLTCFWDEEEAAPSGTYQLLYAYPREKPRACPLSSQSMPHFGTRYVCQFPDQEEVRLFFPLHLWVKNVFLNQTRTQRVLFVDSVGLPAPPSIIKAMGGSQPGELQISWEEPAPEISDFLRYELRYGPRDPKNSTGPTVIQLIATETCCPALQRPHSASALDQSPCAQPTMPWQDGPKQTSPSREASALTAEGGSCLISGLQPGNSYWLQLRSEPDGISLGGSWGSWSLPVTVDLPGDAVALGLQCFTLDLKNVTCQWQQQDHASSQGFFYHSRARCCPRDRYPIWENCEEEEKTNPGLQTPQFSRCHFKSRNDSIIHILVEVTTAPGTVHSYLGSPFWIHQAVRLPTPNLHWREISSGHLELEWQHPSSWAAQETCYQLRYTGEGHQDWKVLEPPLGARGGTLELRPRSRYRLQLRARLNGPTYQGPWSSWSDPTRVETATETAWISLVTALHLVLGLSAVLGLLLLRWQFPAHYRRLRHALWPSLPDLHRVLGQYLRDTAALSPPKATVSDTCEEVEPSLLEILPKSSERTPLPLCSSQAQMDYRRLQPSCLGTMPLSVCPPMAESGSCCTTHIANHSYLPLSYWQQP
Briefly: Stimulation of proliferation of thrombopoietin-dependent cell line UT7/EPO-mpl (WST-8). The class given is cell-based. Particulars: human leukemic cell line UT-7/EPO-mpl, 4 days incubation, WST-8, absorbance at 450 nm; read-out: EC50 (concentration that yields a growth rate corresponding to 50% of the growth observed in the presence of 10 ng/mL TPO) (converted). As to the method: The responses of thrombopoietin receptor to the compounds of the present invention prepared in the Synthetic Examples were assayed using a human leukemic cell line, UT7/EPO-mpl.
UT7/EPO-mpl is a stable transformed cell line obtained by introducing into human leukemic cell line UT7/EPO a vector that induces expression of human thrombopoietin receptor (c-mpl) under control of cytomegalovirus immediate-early promoter by the method of Takatoku et al. (J. Biol. Chem., 272:7259-7263 (1997)). […] These two cell lines were subcultured in IMDM (GIBCO) containing 10% fetal bovine serum (Thermo Electron or BioWest) using a CO2 incubator (5% CO2, 37° C.).
The subcultured cells described above were washed twice with PBS and suspended in IMDM containing 10% fetal bovine serum at a cell density of 6×10^4 cells/ml. The cell suspension was transferred to a 96-well tissue culture plate (CORNING) in 100-μl aliquots. Then either thrombopoietin (Pepro Tech EC) or the compounds of the Synthetic Examples dissolved in dimethyl sulfoxide were diluted 83-fold with IMDM containing 10% fetal bovine serum and added to the aforementioned cell suspension in 20-μl aliquots. The cell suspension was incubated in a CO2 incubator (5% CO2, 37° C.) for 4 days. […] The formazan pigment generated was detected by measuring the absorbance at 450 nm with a 96-well microplate reader (Nihon Molecular Devices, Spectramax 190). […]

Turning to `CCOC(=O)CN1CCN(C(=S)NNC(C)=C2C(=O)N(c3ccc(C(C)(C)C)cc3)N=C2C)CC1` [Example 7], the EC50 was 0.0719 µM.
